Like-named read-outs stand apart in the source and are kept apart here.
What was measured:
[1] = system: naloxone; assay: Naloxone challenge after subchronic administration of test compound (physical dependency); settings: mice; naloxone in doses of up to 100 mg/kg; same schedule and total dosage as for acute morphine dependency
[2] = system: morphine; assay: animal or person; format: in vivo, rats
[3] = system: morphine; parameters: species or system mice; settings: mouse, in vivo
[4] = system: electroshock; assay: Maximal electroshock test; format: in vivo; settings: Mus musculus, sc, 0.5 h; mice; 16 mA/50 c.p.s., 0.2 second, transcorneal; absence of tonic extensor cramp of hind limbs, 30 min
Protocol: 10-40 controls animals were used in each experiment. […] ED50 figures were rounded.
In the maximum electroshock test, the test substances were administered to dose groups of 6 mice. Sinusoidal pulses of 16 milliamperes/50 c.p.s. [Hertz] and 0.2 second duration were delivered transcorneally via silver electrodes. The shock intensity used elicits nonlethal tonic-clonic convulsions in control animals (p <0.01, N = 192). The criterion for protective effect was the absence of the tonic extensor cramp of the hind limbs after shock application (modified test according to Swinyard et al., J. Pharmacol. Exp. Ther. 106, 319, 1952).

[5] = system: apomorphine; assay: Apomorphine antagonism test; format: in vivo, mice; settings: Mus musculus, sc, read-out: ED50, Apomorphine Antagonism
Protocol: (§1) The pharmacological investigations were conducted on mice weighing 20-22 g. or on rats weighing 80-110 g. Unless indicated otherwise, the test substances were administered in the form of the hydrochloride acid addition salt thereof in an isotonic NaCl solution, and the animals were examined 30 minutes after subcutaneous (sc) application. The injection volume was respectively 5 ml./kg. of body weight. 10-40 controls animals were used in each experiment. The test and control solutions were administered in accordance with a randomized injection schedule. Seven logarithmically spaced dosages were employed of each test substance. The effective dose (ED) was calculated by probit analysis (Finney, D. J., "Probit Analysis," Cambridge University Press, 2nd Edition, Cambridge 1957). ED50 figures were rounded.
The criterion for antagonistic effect was the absence of stereotyped movements within an observation period of one minute.

[6] = system: morphine; assay: Precipitated Withdrawal Jumping Test (morphine antagonism in morphine-dependent mice); format: in vivo; settings: morphine-dependent mice
Protocol: as §1
The test compound was given to dose groups of 8 animals. The antagonist-precipitated withdrawal jumping frequencies were recorded during three 5-minute observation intervals uniformly distributed over 30 minutes after administration of the test compound. […] The criterion for a precipitating effect is a mean jumping frequency of >1/minute.

[7] = system: phenylquinone; settings: mice; after subchronic administration of equal total doses
Protocol: as §1
(§2) In the acute test, the test compounds were administered perorally (p.o.) or subcutaneously (s.c.) to mice. Eight mice were used per dose. Seven minutes prior to the testing, the animals received 2 mg./kg. of phenylquinone intraperitoneally. […] The criterion for protective effect was absence of writhes during the eighth minute after phenylquinone administration.
In the subchronic test, the same test was performed 25 hours after the last injection of a 64-hour pretreatment period, with the test compound being administered subcutaneously. During the pretreatment period, the subjects received a total of 550 mg/kg. of the test compound, with the test compound being injected over a period of 22 hours in 4 increasing dosages in salt form, and over an additional 42 hours in 2 identical dosages in free base form in sesame oil.

[8] = system: phenylquinone; assay: Writhing test, acute (phenylquinone writhing, analgesic activity); format: in vivo; settings: Mus musculus, mice, acute, phenylquinone 2 mg/kg i.p., hydrochloride
Protocol: as §1, §2

Question: Which results are given for `CC(C)=CCN1CCC2(C)c3cc(O)ccc3CC1C2C` (centres unmarked) [Pentazocine, reference compound]?
Answer: withdrawal jumping precipitated by naloxone after subchronic administration (morphine-like physical dependency) [1]: no withdrawal jumping is precipitated; ED50 ([2]; Rattus norvegicus, sc, read-out: ED50, Morphine Antagonism-Tail-Flick Test, Rats): 40 mg/kg; morphine-antagonistic activity, tail-flick test (in words), rats ([2]; rat, in vivo): weaker activity, especially in rats; morphine-antagonistic activity, tail-flick test (in words), mice [3]: weaker activity; ED50, Morphine Antagonism-Tail-Flick Test, Mice ([3]; sc, 12.5 mg/kg): 5 mg/kg; ED50 [4]: 17 mg/kg; ED50 [5]: 40 mg/kg; precipitated withdrawal effect (in words) [6]: completely inactive; ED50, Precipitated Withdrawal Jumping Test (inactive, footnote 3) ([6]; tested at 0.78 - 50 mg/kg): Inactive; tolerance development [7]: do not exhibit tolerance development; ED50 ([8]; po, 10 min, p.o., 10 min p.i., ED50 rounded, read-out: ED50, writhing test, acute p.o., 10 min. p.i.): 50 mg/kg; ED50 ([8]; po, 0.5 h, p.o., 30 min p.i., ED50 rounded, read-out: ED50, writhing test, acute p.o., 30 min. p.i.): 70 mg/kg; ED50 ([8]; sc, 10 min, s.c., 10 min p.i., ED50 rounded, read-out: ED50, writhing test, acute s.c., 10 min. p.i.): 3 mg/kg; ED50 ([8]; sc, 0.5 h, s.c., 30 min p.i., * = significant difference between acute and subchronic ED50 (p < 0.001), read-out: ED50, writhing test, acute s.c., 30 min. p.i.): 3 mg/kg
